Earlier results on one compound are cited in patent publication US9737644B2, “Medical device coatings” (TYRX, Inc., priority 2010, dated 2017).

For the data set, the system named is myofibroblast formation. Particulars: animal studies, Ajmal et al. (2003).

With `O=S(=O)([O-])CCS.[Na+]` [Mesna, sodium 2-mercaptoethane sulfonate], the myofibroblast formation entry is “diminish myofibroblast formation”.
